What was measured:
[1] = system: bovine airway smooth muscle cells; format: cell-based
Protocol: (§1) Cell counts and cytotoxicity are assessed by tetrazolium salt reduction (MTT) […] assay in parallel experiments. Millipore filtered MTT (5 mg/ml, Sigma Chemical Co., St Louis, Mo.) dissolved in phosphate buffered saline (PBS, pH 7.2) is added to the microtiter wells (10 μl/well, 20 μl/16 mm well) at the end of the experimental period. After incubating at 37° C. for 4 h, media is removed from the microtiter wells and acidified with 0.04 M HCl. 2-propane/isopropanol is added to the wells at 200 μl/well or 400 μl/16 mm well for human airway smooth muscle cells. The plates are left at room temperature for 30 min and optical density is obtained by an ELISA reader (EL340 Microplate, Bio-Tek instruments, Winooski, Vt.) at 570 nm wave length. The results obtained by MTT assay correlate well with the viable cell counts obtained by the Trypan blue method using hemocytometer (Sigma cell count instruction manual). Cytotoxicity also is measured by LDH assays (Sigma). Release of LDH greater than 5% is considered cytotoxic.
Antisense human airway smooth muscle cell mannose receptor morpholino DNA oligonucleotides (M-oligos, 25 mer, 5 μM) delivered by the scrape method inhibited b hexosaminidase-induced mitogenesis in bovine ASMC by 37% compared to no inhibition by sense M-oligos (data not shown). […]

[2] = system: human airway smooth muscle cells; test: Mitogenic effect of growth factors in human airway smooth muscle cells (MTT); format: cell-based; conditions: for mitogenic response after repeated passages: human ASMC of the same batch, p10
Protocol: as §1
[…] Cells were stimulated with Hex A (50 nM), PDGF (0.1 nM), EGF (100 nM), bFGF (5 nM), thrombin (Thr, 1 unit/ml), FBS (5% vol/vol), or vehicle (V; PBS for Hex; 0.1% BSA in 4 mM HCl for PDGF; 0.1% BSA for EGF and bFGF; unstimulated for Thr and FBS). Viable cell numbers were assessed by MTT assays after 42 h stimulation. […] Experiments were repeated three times.

[3] = system: OVA-sensitized and -challenged mice; test: Histopathology of trachea and lung, OVA-sensitized murine model; format: in vivo, mouse
[4] = system: human airway smooth muscle cells; test: Hex A-induced mitogenesis in human airway smooth muscle cells (MTT); format: cell-based; conditions: mannan 0.1-1 mg/ml 30 min before 50 nM Hex A, 42 h, human ASMC
Protocol: as §1
(§2) Human airway smooth muscle cells in 24-well plates were starved for 18h in medium containing 0.1% FBS. Mannan in concentrations ranging from 0.1-1 mg/ml (Sigma) was added to the cells 30 min prior to the addition of 50 nM Hex A, 0.1 nM PDGF or vehicle (PBS for Hex or 0.1% BSA in 4 mM HCl for PDGF). Viable cell numbers were assessed by MTT assays after 42h stimulation. […]

[5] = system: OVA-sensitized wild type FVB/N mice
Protocol: Enhanced pause (Penh) is measured using the software provided by the manufacturer.
Wild type FVB/N mice, ages 6-8 weeks, were immunized with ovalbumin (20 μg in Imject®-Alum, i.p.) on days 0, 14, 21 as described in Example 6. Non-immunized mice received i.p. injection of Alum only. Thirty minutes before each of the three ovalbumin challenges on days 28-30, the mice were pretreated via aerosol with 100 or 300 mg yeast mannan in 2 ml dH2O or 5 EU E. Coli endotoxin (Sigma Chemical Co., St Louis, Mo.) in 2 ml saline. Experiments were performed in quadruplicate and repeated four times.
Measurements of airway hyper-reactivity (AHR) and broncho alveolar lavage were performed on day 31.
Methacholine sensitivity and reactivity were measured by Penh parameter in spontaneously breathing animals on day 31 (FIG. 9).

[6] = system: human airway smooth muscle cells; test: PDGF-induced mitogenesis in human airway smooth muscle cells (MTT); format: cell-based; conditions: mannan 0.1-1 mg/ml 30 min before 0.1 nM PDGF, 42 h, human ASMC
Protocol: as §1, §2

[7] = system: TNFα secretion, Hex secretion in BAL fluids; test: TNFα and Hex secretion in BAL fluids, OVA-sensitized murine model; format: in vivo, mouse; conditions: aerosolized mannan pretreatment, day 31
Protocol: The activities of Hex are determined as previously described (Lew et al., 1991). Samples (50 μl) are incubated with 100 μl of pre-warmed buffered substrate (5 mM p-nitrophenyl-2-deoxy-β-D-glucosaminide in 0.1 M citrate/phoshate buffer, pH 4.5) in 96-well microtirter plates for 1 h at 37° C. After incubation, the reactions are stopped by the addition of 100 μl of 0.5 M boric acid/NaOH buffer, pH 10.6. p-nitrophenol released by the hydrolytic activity is quantified spectrophotometrically by using a Biotek ELISA reader at 405 nm wave length. The Beer-Lambert Law and molecular extinction coefficient for p-nitrophenol (E=18,700) are applied to obtain units of specific activity expressed as micromoles of substrate cleaved/h/10^6 cells. Purified Hex (Sigma) is tested in each assay as a positive internal control.
Immediately after measuring MCh responsiveness, animals are anesthetized with Ketamine/Xylazine at 50/50 mg/kg and lungs are lavaged once via tracheal tube with 1 ml phosphate buffered saline (PBS, 37° C.). The broncho alveolar lavage_fluid is analyzed for Hex activity and differential cell count. Hex activity in broncho alveolar lavage_fluids is 262±33 μmoles/hr in immunized mice versus 92±12 in non-immunized mice.
Experiments were performed in quadruplicate and repeated four times.
Histopathology and immunohistology were performed on lungs and airways.

[8] = system: bovine airway smooth muscle cells; test: Hex A-induced mitogenesis in bovine airway smooth muscle cells; format: cell-based; conditions: bovine ASMC
Protocol: Measurement of ^3H-thymidine incorporation as an assessment of the rate of DNA synthesis is performed as described previously (Lew et al., 1994) with a modification. After the cells reach confluency and contact-inhibited in microtiter wells (16 mm wells for human airway smooth muscle cells), the medium is replaced with medium M199 (Cellgro, Mediatech, Washington D.C.) or SmBM (for huASMC) containing 0.1% vol/vol fetal bovine serum (FBS, Hyclone Lab. Inc., Logan, Utah) 48 h before exposure to test substances. ^3H-thymidine (0.5 μCi/well or 2.5 μC/16 mm well, sp act 10 Ci/mmol, Amersham Corp., Arlington Heights, Ill.) is added to the cells 18 h after the addition of test substances and cells are harvested 18 h later. Radioactivity is quantified in a liquid scintillation counter (2000 CA; Packard Instrument Co., Downers Grove, Ill.). Experiments are performed in quadruplicate and repeated 3 times.
Mannan, a polymer of mannose, is a specific mannose receptor blocker.

[9] = system: naive wild type FVB/N mice; test: Airway hyperreactivity after aerosolized Hex in naive mice (methacholine challenge, Penh); format: in vivo, mouse; conditions: aerosolized human Hex A 1 mg every other day for 2 weeks, day 15
Protocol: Six week old FVB/N mice were treated with aerosolized human Hex A (1 mg) or vehicle (PBS) every other day for 2 weeks. On day 15, lung physiology was non-invasively assessed by methacholine (Mch) challenge and changes in pulmonary resistance (pause enhancement, Penh).

## Ethoxylated polyethylenimine [EPEI]
[1]
  concentration beyond which the delivery system was cytotoxic: > 3 μl/ml

## PDGF [reference compound]
[2]
  mitogenic response after repeated passages: responded poorly

## mannan
[3]; aerosolized mannan 300 mg
  trachea histology (H&E): trachealis muscle and epithelial layer: Trachealis muscle has normal appearance and the epithelial layer is intact
[3]; mannan 300 mg pretreated mouse
  peribronchiolar cellular infiltration (H&E, lung): marked decrease in peribronchiolar cellular infiltration in 3 out of 4 bronchioles
[4]
  inhibition of Hex A-induced mitogenesis: inhibited by mannan in a concentration dependent manner
[5]; aerosol 30 min before each OVA challenge on days 28-30 (mannan 100 or 300 mg, endotoxin 5 EU), measured on day 31
  effect on OVA-induced airway hyper-reactivity (Penh): Blocks Airway Hyper-Reactivity
[5]; after the last dose of aerosolized yeast mannan
  duration of the inhibitory effect: at least four
[5]; mouse, in vivo
  general condition of the treated mice: remained healthy and active
[6]
  inhibitory effect on PDGF-induced mitogenesis: lack of inhibitory effect
[7]
  induction of Hex secretion in BAL fluids: did not induce
  inhibition of TNFα secretion in BAL fluids: 85-100%
[8]
  inhibition of Hex A-induced mitogenesis: inhibited by mannan in a concentration dependent manner

## thrombin [reference compound]
[2]
  mitogenic response after repeated passages: responded poorly

B1: Hex A: human placental b hexosaminidase A (Sigma), lysosomal hydrolase, mannosyl-rich ligand of ASM-MR (protein)
chain 1: TLEKNVLVVSVVTPGCNQLPTLESVENYTLTINDDQCLLLSETVWGALRGLETFSQLVWKSAEGTFFINKTEIEDFPRFPHRGLLLDTSRHYLPLSSILDTLDVMAYNKLNVFHWHLVDDPSFPYESFTFPELMRKGSYNPVTHIYTAQDVKEVIEYARLRGIRVLAEFDTPGHTLSWGPGIPGLLTPCYSGSEPSGTFGPVNPSLNNTYEFMSTFFLEVSSVFPDFYLHLGGDEVDFTCWKSNPEIQDFMRKKGFGEDFKQLESFYIQTLLDIVSSYGKGYVVWQEVFDNKVKIQPDTIIQVWREDIPVNYMKELELVTKAGFRALLSAPWYLNRISYGPDWKDFYIVEPLAFEGTPEQKALVIGGEACMWGEYVDNTNLVPRLWPRAGAVAERLWSNKLTSDLTFAYERLSHFRCELLRRGVQAQPLNVGFCEQEFEQT
chain 2: TQVQQLLVSITLQSECDAFPNISSDESYTLLVKEPVAVLKANRVWGALRGLETFSQLVYQDSYGTFTINESTIIDSPRFSHRGILIDTSRHYLPVKIILKTLDAMAFNKFNVLHWHIVDDQSFPYQSITFPELSNKGSYSLSHVYTPNDVRMVIEYARLRGIRVLPEFDTPGHTLSWGKGQKDLLTPCYSRQNKLDSFGPINPTLNTTYSFLTTFFKEISEVFPDQFIHLGGDEVEFKCWESNPKIQDFMRQKGFGTDFKKLESFYIQKVLDIIATINKGSIVWQEVFDDKAKLAPGTIVEVWKDSAYPEELSRVTASGFPVILSAPWYLDLISYGQDWRKYYKVEPLDFGGTQKQKQLFIGGEACLWGEYVDATNLTPRLWPRASAVGERLWSSKDVRDMDDAYDRLTRHRCRMVERGIAAQPLYAGYCNHENM
[9]
  airway hyperreactivity (Penh, methacholine challenge): increased airway hyperreactivity
[2]; Hex A 50 nM, 42 h stimulation, serum-starved cells, passage #5
  mitogenic effect (viable cell numbers, MTT): comparable to that of PDGF and fetal bovine serum
[2]
  mitogenic response after repeated passages: responded poorly
